Measured values taken from US8815857B2 (Boehringer Ingelheim International GmbH, priority 2011, dated 2014).
In brackets after ≈: the same amount, converted by molar mass.

Assays:
[1] = molecular target: T1, Recombinant human soluble guanylate cyclase (sGC), alpha 1 / beta 1 subunits, heme-free (Homo sapiens, UniProt Q02108+Q02153); experiment: Molecular assay: cGMP formation by heme-free recombinant sGC (CisBio cGMP detection kit); format: biochemical; conditions: 300 pM heme-free sGC, 37° C., 60 min, cGMP readout; read-out: EC50 nM, Activity of Compounds in Molecular Assay
T1 construct: histidine tag (C); made in house; host or cells: Sf9 insect cells (baculovirus coinfection)
T1 sequence (Q02108 1-690 partner): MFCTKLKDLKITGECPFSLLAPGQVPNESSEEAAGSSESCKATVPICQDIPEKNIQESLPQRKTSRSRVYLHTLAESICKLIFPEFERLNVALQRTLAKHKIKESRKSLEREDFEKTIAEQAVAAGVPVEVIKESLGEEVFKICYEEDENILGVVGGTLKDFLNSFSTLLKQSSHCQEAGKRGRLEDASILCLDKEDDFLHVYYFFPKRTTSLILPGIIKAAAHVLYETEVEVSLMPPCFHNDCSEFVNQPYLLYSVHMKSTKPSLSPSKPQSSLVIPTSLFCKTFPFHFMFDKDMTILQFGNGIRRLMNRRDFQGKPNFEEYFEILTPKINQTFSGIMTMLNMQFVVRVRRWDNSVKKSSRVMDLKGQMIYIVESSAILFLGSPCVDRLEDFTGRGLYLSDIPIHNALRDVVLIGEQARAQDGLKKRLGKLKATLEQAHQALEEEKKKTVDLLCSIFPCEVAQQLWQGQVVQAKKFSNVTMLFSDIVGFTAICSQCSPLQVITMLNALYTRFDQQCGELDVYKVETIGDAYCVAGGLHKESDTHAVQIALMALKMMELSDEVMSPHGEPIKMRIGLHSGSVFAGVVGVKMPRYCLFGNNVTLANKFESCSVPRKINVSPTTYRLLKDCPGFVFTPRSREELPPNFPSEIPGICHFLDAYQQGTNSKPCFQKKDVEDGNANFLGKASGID
T1 sequence (Q02153 1-619): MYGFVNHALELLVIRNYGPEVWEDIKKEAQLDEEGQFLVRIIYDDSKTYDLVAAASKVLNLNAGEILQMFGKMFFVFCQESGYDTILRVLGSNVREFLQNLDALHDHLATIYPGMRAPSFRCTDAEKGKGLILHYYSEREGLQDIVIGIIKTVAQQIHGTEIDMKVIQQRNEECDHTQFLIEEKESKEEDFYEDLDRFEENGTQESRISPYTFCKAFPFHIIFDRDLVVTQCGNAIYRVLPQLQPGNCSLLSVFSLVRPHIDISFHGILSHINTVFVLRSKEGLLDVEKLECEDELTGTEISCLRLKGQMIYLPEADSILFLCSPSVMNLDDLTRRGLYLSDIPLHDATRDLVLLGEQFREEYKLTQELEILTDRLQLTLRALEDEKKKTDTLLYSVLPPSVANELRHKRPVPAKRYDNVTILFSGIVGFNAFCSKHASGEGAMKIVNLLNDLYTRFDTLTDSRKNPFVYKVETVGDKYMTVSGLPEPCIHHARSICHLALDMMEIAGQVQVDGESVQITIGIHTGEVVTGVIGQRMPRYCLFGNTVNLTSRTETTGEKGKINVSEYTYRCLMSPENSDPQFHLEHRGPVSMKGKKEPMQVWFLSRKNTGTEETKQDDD
How it was run: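 Heme-free His-tagged sGC (Sf9-expressed, Tween 20-treated lysate) at 300 pM incubated with compounds (1% DMSO) for 60 min at 37° C in MOPS pH 6.8 with 50 nM GTP, IBMX, TCEP. cGMP quantified by HTRF against calibration curve; EC50 from combined undiluted/diluted values.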

[2] = Assessment of solubility: HT solubility in pION buffer, UV spectrophotometry; conditions: 16-19 h incubation, 1.0% DMSO; for solubility: pION system solution buffer, kinetic from dmso stock
Method: Solubility is measured by the following method.
DMSO stock samples at 10 mM concentration are prepared. […] The samples are pierced and 100 ul of thawed samples are transferred into the PCR plate for analysis. Each sample is run in duplicate at each pH (pH 4.5 and 7.4). Up to 95 samples can be run in replicate at 2 pH's+1 DMSO (blank).
Preparation of pH 4.5 and 7.4 Buffers:
• pH 4.5 buffer:—To 12.5 of system solution (pION)qs to 500 mL of distilled water (pH 2.85-2.90); adjust the pH to pH 4.5 with 0.5 N NaOH. • pH 7.4 buffer: To 12.5 of system solution (pION)qs to 500 mL of distilled water (pH 2.85-2.90); adjust the pH to pH 7.4 with 0.5N NaOH. […] Procedure: Preparation of UV Blank Plate:
75 ul of buffer (pH 7.4 or pH 4.5) is added to UV plate followed by addition of 70 ul of N-propanol. The solution is mixed and the blank spectrum is read using spectrophotometer.
Preparation of Reference UV Plate:
10 ul of each stock sample (including DMSO control) is added to 190 ul of N-propanol to prepare the reference stock plate. Reference stock samples are mixed and 5 ul of each stock sample is added to UV blank plate after it is read spectrophotometrically. The reference stock sample is mixed with blank solution in UV plate and the reference spectrum is read using UV spectrophotometer.
Preparation of Sample for Incubation:
Solubility at pH 7.4:6 ul of each stock sample (including DMSO control) is added to the storage plate containing 600 ul of pH 7.4 buffer, mixed and incubated for 16-19 h. The plate is sealed well during the incubation process. The DMSO content in the sample is 1.0%. The concentration in deep well plates is 100 uM
6 ul of each stock sample (including DMSO control) is added to the deep well plate containing 600 ul of pH 4.5 buffer, mixed and incubated for 16-19 h. The plate is sealed well during the incubation process. The DMSO content in the sample is 1.0%. The concentration in deep well plates is 100 uM
Preparation of Sample UV Plate:
At the end of the incubation period, 100 uL of sample from the storage plate is vacuum filtered using a filter plate. This step wets the filters and the filtrate is discarded. Another 200 ul of the sample from the deep well plate is vacuum filtered using the same filter block but a clean filter plate. 75 ul of the filtrate from the filter plate is transferred to a UV sample plate. 75 ul of N-propanol is added to this UV plate. The solution is mixed and the spectrum is read using the UV spectrophotometer.
The spectra collected for blank, reference and sample from 250-498 nm is analyzed using pION software. If the sample precipitates out, the solubility is reported as XX μg/ml.

[3] = pH 7.4, pH 7.4, aqueous buffer, Solubility (pH 7.4), pH 7.4 buffer
[4] = pH 4.5, pH 4.5, aqueous buffer, Solubility (pH 4.5), pH 4.5 buffer

Row | Structure (SMILES) | EC50 [1] | Solubility (pH 4.5) ([2]; pH 4.5 buffer) | solubility [2, 3] | solubility [2, 4]
1 | Cc1cc(C(=O)N2CCCCC2)ccc1COc1ccc(C#N)cc1-c1csc(N2CC3C(C2)C3C(=O)O)n1 (stereo not drawn) [Compound 64] | 1800 nM | 0.1 μg/mL | > 54 µg/mL | –
2 | Cc1ccc(OCc2ccc(C(=O)N3CCCCC3)cc2C#N)c(-c2csc(N3CCC(C(=O)O)CC3)n2)c1 [Compound 65] | 58 nM | 0.1 μg/mL | 23 µg/mL (≈ 42.2 µM) | –
3 | Cc1cc(C(=O)N2CCCCC2)ccc1COc1c(C#N)cccc1-c1csc(N2CCC(C(=O)O)CC2)n1 [Compound 66] | 450 nM | – | > 54 µg/mL | 1 µg/mL (≈ 1.84 µM)
4 | Cc1cc(C(=O)N2CCCCC2)ccc1COc1ccccc1-c1csc(N2CC3CCC(C2)C3C(=O)O)n1 (stereo not drawn) [Compound 67] | 2.5 nM | – | > 54 µg/mL | 0.2 µg/mL (≈ 0.366 µM)
5 | Cc1cc(C(=O)N2CCCCC2)ccc1COc1ccccc1-c1csc(N2C3CCC2CC(C(=O)O)C3)n1 (stereo not drawn) [Compound 68] | 43 nM | – | > 54 µg/mL | 1.2 µg/mL (≈ 2.2 µM)
6 | Cc1ccc(OCc2ccc(C(=O)N3CCOCC3)cc2C#N)c(-c2csc(N3CCC(C(=O)O)CC3)n2)c1 [Compound 70] | 180 nM | – | > 54 µg/mL | 0.45 µg/mL (≈ 0.823 µM)
7 | Cc1ccc(OCc2ccc(C(=O)N3CCCCC3)cc2C)c(-c2csc(N3CCC(C(=O)O)C(C)C3)n2)c1 (stereo not drawn) [Compound 71] | 12000 nM | – | > 62 µg/mL | 42 µg/mL (≈ 76.7 µM)
8 | Cc1cc(CN2CCOCC2)ccc1COc1ccc(C#N)cc1-c1csc(N2CCC(C(=O)O)C(C)C2)n1 (stereo not drawn) [Compound 72] | 4.8 nM | – | > 54 µg/mL | 0.5 µg/mL (≈ 0.915 µM)
9 | Cc1ccc(OCc2ccc(C(=O)N3CCCCC3)cc2C)c(-c2csc(N3CCC(C(=O)O)CC3C)n2)c1 (stereo not drawn) [Compound 73] | 7.6 nM | – | > 54 µg/mL | 1.9 µg/mL (≈ 3.47 µM)
10 | Cc1ccc(OCc2ccc(CN3CCOCC3)cc2C)c(-c2csc(N3CC4CCC(C3)C4C(=O)O)n2)c1 (stereo not drawn) [Compound 74] | 27 nM | – | 42 µg/mL (≈ 76.7 µM) | 40 µg/mL (≈ 73 µM)
11 | COCCN(C)Cc1ccc(COc2ccc(C)cc2-c2csc(N3CC[C@@H](C(=O)O)[C@@H](C)C3)n2)c(C#N)c1 [Compound 75] | 600 nM | – | > 66 µg/mL | > 66 µg/mL
12 | Cc1cc(CN2CCOCC2)ccc1COc1ccc(F)cc1-c1csc(N2C3CCC2CC(C(=O)O)C3)n1 (stereo not drawn) [Compound 80] | 740 nM | – | > 62 µg/mL | > 62 µg/mL
13 | Cc1cc(CN2CCOCC2)ccc1COc1ccc(C#N)cc1-c1csc(N2C3CCC2CC(C(=O)O)C3)n1 (stereo not drawn) [Compound 87] | 800 nM | – | > 63 µg/mL | > 63 µg/mL
14 | Cc1ccc(OCc2ccc(C(=O)N3CCCCC3)cc2C)c(-c2csc(N3C4CCC3CC(C(=O)O)C4)n2)c1 (stereo not drawn) [Compound 88] | 15 nM | – | > 55 µg/mL | 0.45 µg/mL (≈ 0.804 µM)
15 | Cc1cc(C(=O)N2CCCCC2)ccc1COc1ccc(F)cc1-c1csc(N2C3CCC2CC(C(=O)O)C3)n1 (stereo not drawn) [Compound 97] | 59 nM | – | > 56 µg/mL | 0.45 µg/mL (≈ 0.798 µM)
16 | Cc1cc(CN2CCOCC2)ccc1COc1ccc(Cl)cc1-c1csc(N2C3CCC2CC(C(=O)O)C3)n1 (stereo not drawn) [Compound 100] | 440 nM | – | 27 µg/mL (≈ 47.5 µM) | 20 µg/mL (≈ 35.2 µM)

Continued, values first:

Row | EC50 [1] | Solubility (pH 4.5) ([2]; pH 4.5 buffer) | solubility [2, 3] | solubility [2, 4] | Structure (SMILES)
17 | 600 nM | 0.1 μg/mL | 4.1 µg/mL (≈ 7.44 µM) | – | Cc1cc(C(=O)N2CCCCC2)ccc1COc1ccc(Cl)cc1-c1csc(C2=CCC(C(=O)O)CC2)n1 (stereo not drawn) [Compound 76]
18 | 4400 nM | – | 16 µg/mL (≈ 29 µM) | 22 µg/mL (≈ 39.9 µM) | Cc1cc(CN2CCOCC2)ccc1COc1ccc(F)cc1-c1csc(N2CC3CCC(C2)C3C(=O)O)n1 (stereo not drawn) [Compound 77]
19 | 550 nM | – | > 55 µg/mL | 0.2 µg/mL (≈ 0.362 µM) | Cc1cc(C(=O)N2CCCCC2)ccc1COc1ccc(Cl)cc1-c1csc(N2CC3C(C2)C3C(=O)O)n1 (stereo not drawn) [Compound 78]
20 | 50 nM | – | > 55 µg/mL | 0.25 µg/mL (≈ 0.453 µM) | Cc1cc(C(=O)N2CCCCC2)ccc1COc1ccc(F)cc1-c1csc(N2CCC(C(=O)O)CC2C)n1 (stereo not drawn) [Compound 79]
21 | 70 nM | – | 38 µg/mL (≈ 68.7 µM) | 36 µg/mL (≈ 65.1 µM) | N#Cc1cc(CN2CCOCC2)ccc1COc1c(Cl)cccc1-c1csc(N2CCC(C(=O)O)CC2)n1 [Compound 81]
22 | 3100 nM | – | > 55 µg/mL | 12 µg/mL (≈ 21.7 µM) | Cc1cc(CN2CCS(=O)(=O)CC2)ccc1COc1ccccc1-c1csc(N2CC3C(C2)C3C(=O)O)n1 (stereo not drawn) [Compound 82]
23 | 210 nM | – | 25 µg/mL (≈ 45 µM) | 11 µg/mL (≈ 19.8 µM) | Cc1cc(CN2CCOCC2)ccc1COc1ccc(Cl)cc1-c1csc(N2CCC(C(=O)O)C(C)C2)n1 (stereo not drawn) [Compound 83]
24 | 180 nM | – | 21 µg/mL (≈ 37.8 µM) | 14 µg/mL (≈ 25.2 µM) | Cc1cc(CN2CCOCC2)ccc1COc1ccc(Cl)cc1-c1csc(N2CCC(C(=O)O)CC2C)n1 (stereo not drawn) [Compound 84]
25 | 1100 nM | – | > 55 µg/mL | 0.35 µg/mL (≈ 0.626 µM) | Cc1cc(C(=O)N2CCCCC2)ccc1COc1ccc(C#N)cc1-c1csc(N2CCC(C(=O)O)CC2C)n1 (stereo not drawn) [Compound 85]
26 | 7100 nM | – | 5.7 µg/mL (≈ 10.2 µM) | 3.5 µg/mL (≈ 6.26 µM) | Cc1cc(CN2CCOCC2)ccc1COc1ccc(C#N)cc1-c1csc(N2CC3CCC(C2)C3C(=O)O)n1 (stereo not drawn) [Compound 86]
27 | 2.5 nM | – | 32 µg/mL (≈ 57.2 µM) | 0.35 µg/mL (≈ 0.625 µM) | Cc1ccc(OCc2ccc(C(=O)N3CCCCC3)cc2C)c(-c2csc(N3CC4CCC(C3)C4C(=O)O)n2)c1 (stereo not drawn) [Compound 89, 3-(4-{5-methyl-2-[2-methyl-4-(piperidine-1-carbonyl)-benzyloxy]-phenyl}-thiazol-2-yl)-3-aza-bicyclo[3.2.1]octane-8-carboxylic acid]
28 | 150 nM | – | > 56 µg/mL | 35 µg/mL (≈ 62.4 µM) | Cc1ccc(OCc2ccc(C(=O)N3CCC(O)CC3)cc2C#N)c(-c2csc(N3CCC(C(=O)O)CC3)n2)c1 [Compound 90]
29 | 730 nM | – | 12 µg/mL (≈ 21.4 µM) | 31 µg/mL (≈ 55.2 µM) | Cc1ccc(OCc2ccc(CN(C)CC3CCCCC3)cc2C)c(-c2csc(N3CCC(C(=O)O)CC3)n2)c1 [Compound 91]
30 | 78 nM | – | 12 µg/mL (≈ 21.3 µM) | 20 µg/mL (≈ 35.5 µM) | COCCCN(C)C(=O)c1ccc(COc2ccc(C)cc2-c2csc(N3CCC(C(=O)O)CC3)n2)c(C#N)c1 [Compound 92]
31 | 770 nM | – | > 56 µg/mL | > 56 µg/mL | Cc1cc(CN2CCCC(C(N)=O)C2)ccc1COc1c(C)cccc1-c1csc(N2CCC(C(=O)O)CC2)n1 (stereo not drawn) [Compound 94]
32 | 35 nM | – | > 56 µg/mL | > 56 µg/mL | CC(=O)N1CCN(Cc2ccc(COc3c(C)cccc3-c3csc(N4CCC(C(=O)O)CC4)n3)c(C)c2)CC1 [Compound 95]
33 | 550 nM | – | > 67 µg/mL | > 67 µg/mL | Cc1ccc(OCc2ccc(CN(C)CC3CCOCC3)cc2C)c(-c2csc(N3CCC(C(=O)O)CC3)n2)c1 [Compound 96]
34 | 780 nM | – | > 56 µg/mL | 0.2 µg/mL (≈ 0.355 µM) | Cc1cc(C(=O)N2CCCCC2)ccc1COc1ccc(F)cc1-c1csc(N2CC3CCC(C2)C3C(=O)O)n1 (stereo not drawn) [Compound 98]
35 | 690 nM | – | 13 µg/mL (≈ 22.9 µM) | 4.7 µg/mL (≈ 8.27 µM) | Cc1cc(CN2CCOCC2)ccc1COc1ccc(Cl)cc1-c1csc(N2CC3CCC(C2)C3C(=O)O)n1 (stereo not drawn) [Compound 99]
36 | 1700 nM | – | > 56 µg/mL | 3 µg/mL (≈ 5.28 µM) | Cc1ccc(OCc2ccc(CN3CCS(=O)(=O)CC3)cc2C)c(-c2csc(N3CC4C(C3)C4C(=O)O)n2)c1 (stereo not drawn) [Compound 101]
